Two compounds from PMC3234531 (2011) can be followed below.

Experiment [1] has as its target IKca channel (intermediate conductance potassium channel) (Homo sapiens, UniProt O15554). In words: modified biotin switch. In kind it is cell-based.
Experiment [2] addresses cystathionine γ-lyase (CSE). In words: CSE activity assay after pre-incubation with the NO donor S-nitroso-glutathione. In kind it is biochemical.

SMILES strings stand for the structures.

Sequence of IKca channel (intermediate conductance potassium channel) (O15554 whole entry): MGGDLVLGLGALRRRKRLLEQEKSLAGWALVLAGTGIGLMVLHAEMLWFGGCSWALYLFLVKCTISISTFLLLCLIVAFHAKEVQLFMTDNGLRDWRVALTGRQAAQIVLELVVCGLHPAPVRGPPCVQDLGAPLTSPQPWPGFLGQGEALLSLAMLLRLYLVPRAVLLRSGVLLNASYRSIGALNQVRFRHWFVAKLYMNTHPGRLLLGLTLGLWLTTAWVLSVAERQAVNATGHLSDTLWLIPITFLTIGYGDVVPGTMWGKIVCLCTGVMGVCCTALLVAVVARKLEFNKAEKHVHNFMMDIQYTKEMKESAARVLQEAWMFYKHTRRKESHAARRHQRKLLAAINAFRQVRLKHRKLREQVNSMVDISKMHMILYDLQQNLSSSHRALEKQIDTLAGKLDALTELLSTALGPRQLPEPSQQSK

As to `S` [H2S], in experiment [1], the “modified biotin switch (S-sulfhydration) assay, DTT-sensitive” value is listed as “IKca channels from human aortic endothelial cells are sulfhydrated by NaHS in a DTT-sensitive fashion”.

Consider `[N]=O` [NO], for which the IC50 in experiment [2] was ~100 nM.
